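In this assay, cells in 96-well plates receive the compound at five concentrations for 48 hours. Endpoints are linearly interpolated between the surrounding concentrations. GI50 = concentration required for 50% inhibition of growth.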 Calls of active or inactive are those of the source. Cut-off read from the data, not from the text of the source: active = GI50 up to about 1.1 µM and inactive = higher.
Legend:
Test in all cases: inhibition of tumour cell growth, NCI panel, 48 h
NCI-H23 = test system: NCI-H23
BT-549 = test system: BT-549
SK-OV-3 = test system: SK-OV-3
786-0 = test system: 786-0
SNB-75 = test system: SNB-75
MOLT-4 = test system: MOLT-4
MDA-MB-435 = test system: MDA-MB-435
A549 = test system: A549
TK-10 = test system: TK-10
NCI-H226 = test system: NCI-H226
SK-MEL-5 = test system: SK-MEL-5
SF-268 = test system: SF-268
MDA-N = test system: MDA-N
SK-MEL-28 = test system: SK-MEL-28
HCC 2998 = test system: HCC 2998
EKVX = test system: EKVX
NCI-H460 = test system: NCI-H460
SK-MEL-2 = test system: SK-MEL-2
OVCAR-4 = test system: OVCAR-4
Hs-578T = test system: Hs-578T

SMILES	GI50 (NCI-H23)	GI50 (BT-549)	GI50 (SK-OV-3)	GI50 (786-0)	GI50 (SNB-75)	GI50 (MOLT-4)	GI50 (MDA-MB-435)	GI50 (A549)	GI50 (TK-10)	GI50 (NCI-H226)	GI50 (SK-MEL-5)	GI50 (SF-268)	GI50 (MDA-N)	GI50 (SK-MEL-28)	GI50 (HCC 2998)	GI50 (EKVX)	GI50 (NCI-H460)	GI50 (SK-MEL-2)	GI50 (OVCAR-4)	GI50 (Hs-578T)
Cc1cccc(N2CCN(S(=O)(=O)c3ccc(Cl)cc3)C2=N)c1C	96.4 µM (inactive)	> 100 µM (inactive)	> 100 µM (inactive)	> 100 µM (inactive)	> 100 µM (inactive)	35 µM (inactive)	> 100 µM (inactive)	> 100 µM (inactive)	> 100 µM (inactive)	> 100 µM (inactive)	> 100 µM (inactive)	> 100 µM (inactive)	> 100 µM (inactive)	38.6 µM (inactive)	–	–	–	–	–	–
CC[C@@H]1/C=C/C=C/C[C@H](C)[C@@H](O)[C@](C)(O)C(=O)[C@H](C)[C@@H](O)[C@H](C)C(=O)[C@H](C)[C@@H](O)[C@H](C)/C=C/C(=O)O[C@H]2[C@@H](C)[C@@H](CC1)O[C@]1(O[C@H](CC(C)O)[C@H](C)CC1=O)[C@@H]2C (some centres undefined)	< 0.0025 µM (active)	3.75 µM (inactive)	5.66 µM (inactive)	4.79 µM (inactive)	0.871 µM (active)	3.82 µM (inactive)	3.26 µM (inactive)	< 0.0025 µM (active)	1.22 µM (inactive)	–	< 0.0025 µM (active)	3.71 µM (inactive)	3.35 µM (inactive)	6 µM (inactive)	3.53 µM (inactive)	< 0.0025 µM (active)	1.04 µM (active)	3.89 µM (inactive)	2.56 µM (inactive)	5.36 µM (inactive)
CC(C)(C)C(=O)Nc1c(C=O)ccc2[nH]cnc12	> 100 µM (inactive)	> 100 µM (inactive)	> 100 µM (inactive)	> 100 µM (inactive)	> 100 µM (inactive)	30.5 µM (inactive)	> 100 µM (inactive)	> 100 µM (inactive)	> 100 µM (inactive)	> 100 µM (inactive)	78.7 µM (inactive)	> 100 µM (inactive)	> 100 µM (inactive)	> 100 µM (inactive)	> 100 µM (inactive)	> 100 µM (inactive)	> 100 µM (inactive)	> 100 µM (inactive)	> 100 µM (inactive)	–
O=c1c2cc(-c3ccccc3)cnc2sn1-c1ccc(Oc2ccccc2)cc1	61 µM (inactive)	23.2 µM (inactive)	> 100 µM (inactive)	17.3 µM (inactive)	32 µM (inactive)	49.2 µM (inactive)	41.1 µM (inactive)	19.5 µM (inactive)	–	87.5 µM (inactive)	–	51.4 µM (inactive)	28.4 µM (inactive)	> 100 µM (inactive)	73.5 µM (inactive)	68.5 µM (inactive)	> 100 µM (inactive)	> 100 µM (inactive)	19.9 µM (inactive)	–
COc1ccc(-n2c(=O)c3nc(S)[nH]c3n(-c3ccc(OC)cc3)c2=S)cc1	> 100 µM (inactive)	> 100 µM (inactive)	> 100 µM (inactive)	> 100 µM (inactive)	> 100 µM (inactive)	> 100 µM (inactive)	> 100 µM (inactive)	> 100 µM (inactive)	> 100 µM (inactive)	> 100 µM (inactive)	> 100 µM (inactive)	> 100 µM (inactive)	–	> 100 µM (inactive)	> 100 µM (inactive)	> 100 µM (inactive)	> 100 µM (inactive)	> 100 µM (inactive)	> 100 µM (inactive)	–
O=C(O)CSc1cc(-c2ccccc2)nc2ccccc12	44.7 µM (inactive)	32 µM (inactive)	–	47.1 µM (inactive)	–	46.3 µM (inactive)	13.3 µM (inactive)	55.5 µM (inactive)	64.1 µM (inactive)	–	30.4 µM (inactive)	35 µM (inactive)	35.6 µM (inactive)	85.1 µM (inactive)	–	> 100 µM (inactive)	38.7 µM (inactive)	26.5 µM (inactive)	64 µM (inactive)	19.4 µM (inactive)
Cc1cc2ncn(CC(=O)O)c2cc1C	> 100 µM (inactive)	> 100 µM (inactive)	> 100 µM (inactive)	> 100 µM (inactive)	> 100 µM (inactive)	> 100 µM (inactive)	> 100 µM (inactive)	> 100 µM (inactive)	> 100 µM (inactive)	> 100 µM (inactive)	> 100 µM (inactive)	> 100 µM (inactive)	–	> 100 µM (inactive)	–	> 100 µM (inactive)	> 100 µM (inactive)	> 100 µM (inactive)	> 100 µM (inactive)	> 100 µM (inactive)
CC(=O)O[C@H]1C(=O)[C@@]2(C)C(C(OC(=O)c3ccccc3)[C@]3(O)CC(OC(=O)C(O)C(NC(=O)c4cccc(Cl)c4)c4ccccc4)C(C)=C1C3(C)C)[C@]1(OC(C)=O)CO[C@@H]1C[C@@H]2O (some centres undefined)	1.39 µM (inactive)	6.58 µM (inactive)	3.67 µM (inactive)	0.728 µM (active)	1.1 µM (active)	1.01 µM (active)	0.118 µM (active)	0.693 µM (active)	2.51 µM (inactive)	> 10 µM (inactive)	0.42 µM (active)	0.268 µM (active)	0.0914 µM (active)	–	0.0664 µM (active)	> 10 µM (inactive)	0.419 µM (active)	0.656 µM (active)	3.96 µM (inactive)	–
NC(=O)C(=O)C(c1ccccc1)S(=O)(=O)Cc1ccccc1 (centres undefined)	> 100 µM (inactive)	> 100 µM (inactive)	> 100 µM (inactive)	> 100 µM (inactive)	> 82 µM (inactive)	16.5 µM (inactive)	> 100 µM (inactive)	> 100 µM (inactive)	> 100 µM (inactive)	> 100 µM (inactive)	> 100 µM (inactive)	> 100 µM (inactive)	> 100 µM (inactive)	> 100 µM (inactive)	> 100 µM (inactive)	> 100 µM (inactive)	> 100 µM (inactive)	> 100 µM (inactive)	> 100 µM (inactive)	–
CC1=NN(C(=O)c2ccccc2O)C(=O)/C1=C/c1ccco1	1.53 µM (inactive)	12.6 µM (inactive)	5.7 µM (inactive)	1.64 µM (inactive)	3.02 µM (inactive)	1.93 µM (inactive)	0.581 µM (active)	7.19 µM (inactive)	33.9 µM (inactive)	3.46 µM (inactive)	1.36 µM (inactive)	1.11 µM (active)	0.53 µM (active)	14.6 µM (inactive)	> 22.8 µM (inactive)	3.06 µM (inactive)	1.59 µM (inactive)	5.02 µM (inactive)	3.46 µM (inactive)	–
CS(=O)(=O)O[C@H]1[C@H](O)c2ccccc2[C@@H]1N=[N+]=[N-]	> 100 µM (inactive)	> 100 µM (inactive)	> 100 µM (inactive)	> 100 µM (inactive)	21.4 µM (inactive)	> 100 µM (inactive)	> 100 µM (inactive)	> 100 µM (inactive)	–	> 100 µM (inactive)	> 100 µM (inactive)	–	> 100 µM (inactive)	> 100 µM (inactive)	> 100 µM (inactive)	> 100 µM (inactive)	> 100 µM (inactive)	> 100 µM (inactive)	> 100 µM (inactive)	–
